One assay has as its target Muscarinic receptor 2. As to the kind of experiment: Affinity for the muscarinic M2 receptor ([^3 H]quinuclidinyl benzylate binding, rat brain). As to conditions: 0.3 nM ^3 H quinuclidinyl benzylate, 60 min, 25° C., pH 7.5. As to the method:
The preparation is carried out from the brains of male rats weighing 150 to 200 g (Iffa Credo).
The brains are ground up (Teflon-glass) in a 0.32 M sucrose solution. The homogenate is centrifuged for 10 minutes at 1000 g (0-4° C.).
The supernatant obtained is collected and centrifuged again at 30000 g for 15 minutes (0-4° C.).
The deposit is put in suspensions in a 50 mM Tris pH 7.5 buffer and the new homogenate is centrifuged again at 30000 g for 15 minutes (0-4° C.).
After elimination of the supernatants, the deposits can be used immediately or kept for up to one month at -30° C.
For one experiment the deposits are firstly defrosted, if necessary, at ambient temperature and put in suspension using a Dounce grinder in a 50 mM Tris pH 7.5 buffer. 2 ml aliquots are incubated for 60 minutes at 25° C. in the presence of 0.3 nM of
^3 H quinuclidinyl benzylate either on its own, or with the product to be tested, or with benzatropine at 10^-5 M in order to determine the non-specific fixed radioactivity.
At the end of the incubation, the tubes of incubate are cooled down to 4° C. and the incubate is filtered rapidly on Whatman GF/C filters. The filters are rinsed with 3×5 ml of 50 mM Tris pH 7.5 buffer then measurements are carried out by liquid scintillation (Henry I Yamamura, Solomon H. Synder, Proc. Nat. Acad Sc. (1974) 71, No. 5, 1725-1729).
(§1) The results are expressed in IC50 (concentration necessary to inhibit 50% of the fixed specific radio-activity).

In a further assay the target is T1, Muscarinic receptor 1 (Rattus norvegicus, UniProt P08482).
T1 construct: cortex removed from the brains of male rats weighing 150 to 200 g (Iffa Credo); from tissue; host or cells: rat cerebral cortex homogenate
T1 sequence (P08482 1-460): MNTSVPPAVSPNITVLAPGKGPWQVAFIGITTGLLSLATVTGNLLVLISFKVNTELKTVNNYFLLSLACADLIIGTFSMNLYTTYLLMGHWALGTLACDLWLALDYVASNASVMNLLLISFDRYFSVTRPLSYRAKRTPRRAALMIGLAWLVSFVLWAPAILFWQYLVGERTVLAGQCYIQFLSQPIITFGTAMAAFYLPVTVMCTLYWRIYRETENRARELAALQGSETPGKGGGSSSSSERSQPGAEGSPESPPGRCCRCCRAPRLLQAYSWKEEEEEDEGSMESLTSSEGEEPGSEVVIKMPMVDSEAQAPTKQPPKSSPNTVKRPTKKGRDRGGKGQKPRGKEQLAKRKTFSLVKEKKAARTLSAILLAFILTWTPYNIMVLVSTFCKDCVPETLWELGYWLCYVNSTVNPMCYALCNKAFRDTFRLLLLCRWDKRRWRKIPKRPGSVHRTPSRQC
The assay is described as follows: Affinity for the muscarinic M1 receptor ([^3 H]pirenzepine binding, rat cortex). Conditions: 0.25 nM ^3 H pirenzepine, 60 min, 25° C., pH 7.4. How it is done: Its preparation is carried out from cortex removed from the brains of male rats weighing 150 to 200 g (Iffa Credo) ground up in a Polytron in a 10 mM Na/K pH 7.4 buffer. After incubation (0.5 ml aliquots of homogenate) for 60 minutes at 25° C. in the presence of 0.25 nM of ^3 H pirenzepine either on its own, or with the product to be tested, or with an excess of pirenzepine at 10^-5 M (in order to determine the non-specific fixed radioactivity), the incubates are cooled down and filtered.
The filtration is carried out on Whatman GF/C filters prewashed in a 0.05% polyethylene imine solution. The filters are rinsed with 3×5 ml of 10 mM Na/K pH 7.4 phosphate buffer, then measurements are carried out by liquid scintillation.
as §1

The next assay relates to isolated ileum. The assay is described as follows: Agonistic action on isolated guinea-pig ileum. Format: cell-based. As to conditions: negative logarithm of the dose producing 50% of the maximum effect; for EC50: Cavia porcellus, read-out: Agonistic action pD2 (converted). As to the method:
(§2) The interaction of the compounds with different receptors was evaluated on the isolated ileum of a guinea-pig according to the following method.
(§3) 2.5-3 cm segments of the guinea-pigs, ileum were washed and immediately suspended in a bath containing 10 ml of a Tyrode solution at 37° C. and aerated with a mixture of oxygen (95%) and carbon dioxide (5%). After a stabilization period of at least 30 minutes, the contractions are recorded, maintaining the preparation under constant pressure of 1 g, using a sensor connected to a polygraph. […] The following dose was only added to the bath after the preparation returned to its base line. Arecoline was used as reference product. The antagonistic action was evaluated on contractions induced by acetylcholine (1×10^-6 M), histamine (1×10^-5 M) and barium chloride (2×10^-5 M). […] The contact time before adding the agonist was one minute.
(§4) For each compound the dose-response curves are obtained with 4 to 6 different concentrations and 3 to 5 independent tests. The agonistic activity is expressed by pD2 (negative logarithm of the dose which produces 50% of the maximum effect). The antagonistic activity is expressed by IC50 (concentration inhibiting 50% of the maximum response).

In assay [1] the test system is cholinomimetic effects induced by carbachol. The assay is described as follows: In vivo anti-cholinergic action: inhibition of cholinomimetic effects induced by carbachol in mice. Further details: species or system CD1 male mice. Conditions: for ED50 / ED (1 degree C): Mus musculus, ip, 0.5 h; for ED (1 degree C): rectal temperature, read-out: Dose changing body temperature (hypothermic effect of carbachol) by 1° C. As to the method: The anti-cholinergic activity of the compounds was determined by evaluating the capacity to inhibit the cholino-mimetic effects induced by carbachol. Atropine sulphate was used as reference product.
CD1 male mice weighing 25 to 30 g are used. They are divided into groups of 6 animals and treated by intraperi-toneal route at scalar doses of the products or 0.25% Methocel for the controls. 12 animals are used for each dose. 30 minutes after the administration of the compounds, 1 mg/kg of carbachol, dissolved in physiological serum, was injected into the mice by sub-cutaneous route.
Each animal was examined 30 minutes after the injection of carbachol to evaluate the presence of diarrhoea, salivation and weeping; the body temperature was also measured using a thermocouple inserted 1.5 cm inside the rectum.
For each compound, we have determined the dose which can inhibit, in 50% of the animals, the appearance of cholinomimetic symptoms induced by carbachol and […] the hypothermic effect induced by the cholinergic agent by 1° C.

Assay [2] concerns barium chloride-induced contractions of isolated ileum. As to the kind of experiment: Antagonism of barium chloride-induced contractions of isolated guinea-pig ileum. Format: cell-based. As to conditions: read-out: Antagonistic to BaCl2, IC50. As to the method: as §2, §3, §4
Assay [3] relates to histamine-induced contractions of isolated ileum. As to the kind of experiment: Antagonism of histamine-induced contractions of isolated guinea-pig ileum. Format: cell-based. As to conditions: histamine 1×10^-5 M, contact time one minute, 37° C., read-out: Antagonistic to Histam., IC50. How it is done:
as §2, §3, §4

The test system of assay [4] is acetylcholine-induced contractions of isolated ileum. The assay is described as follows: Antagonism of acetylcholine-induced contractions of isolated guinea-pig ileum. Conditions: read-out: Antagonistic to ACh, IC50. Format: cell-based. As to the method: as §2, §3, §4
[5] abbreviates: i.p., 30 min before carbachol 1 mg/kg s.c., read-out: Dose inhibiting diarrhoea in 50% of the animals.
The mark [6] stands for this setting: i.p., 30 min before carbachol 1 mg/kg s.c., read-out: Dose inhibiting salivation in 50% of the animals.
Where [7] appears, read: i.p., 30 min before carbachol 1 mg/kg s.c., read-out: Dose inhibiting weeping in 50% of the animals.
[8] abbreviates: i.p., 30 min before carbachol 1 mg/kg s.c.
Where [9] appears, read: Cavia porcellus, barium chloride 2×10^-5 M, contact time one minute, 37° C.
Setting [10] is: Cavia porcellus, acetylcholine 1×10^-6 M, contact time one minute, 37° C.

Consider eleven compounds from patent publication US5204341A, “1-arylsulphonyl-2-pyrrolidone derivatives, their preparation process and the new intermediates obtained, their use as medicaments and the pharmaceutical compositions containing them” (priority 1990, dated 1993).

The term pIC50 denotes the IC50 on a negative log10 scale, so that one unit is a factor of ten.

pIC50: −log10 of the molar value. Read-outs that look alike come from different tables or passages of the source. Bounds are passed on as bounds.

Turning to `O=S(=O)(c1ccc(N2CCCCC2)cc1)N1CC(O)CC1=S` (stereo not shown) [Example 5], the pIC50 is < 5.30 on Muscarinic receptor 2; 6.77 at Muscarinic receptor 1; < 5.00 in assay [2] (setting [9]); < 5.00 in assay [3] (Cavia porcellus); 5.85 in assay [4] (setting [10]). Also, the EC50 in the assay with isolated ileum is > 100000 nM. The ED50 in assay [1] (setting [5]) is 6 mg/kg; in assay [1] (setting [6]), 50 mg/kg; in assay [1] (setting [7]) it was > 50 mg/kg. In addition, the ED (1 degree C) in assay [1] (setting [8]) was 25 mg/kg. In addition, the “selectivity of in vivo anticholinergic action (in words)” value in assay [1] (contrary to atropine) is “selective anticholingeric action at the level of the intestinal musculature”.
For the compound `CCN(CC)c1ccc(S(=O)(=O)N2CC(O)CC2=O)cc1` (stereo not shown) [Example 1, 1-[[4-(diethylamino)-phenyl]sulphonyl]-4-hydroxy-2-pyrrolidinone], the pIC50 at Muscarinic receptor 2 is < 5.30; at Muscarinic receptor 1, 6.43; in assay [2] (setting [9]), < 5.00; in assay [3] (Cavia porcellus), < 5.00; in assay [4] (setting [10]), 6.07. In the assay on isolated ileum, the EC50 was > 100000 nM.
Consider “1-[[4-(dimethylamino)-phenyl]-sulphonyl]-4-(2,2-dimethyl-1-oxo-propoxy)-2-pyrrolidinone [Example 2]”, for which the pIC50 was < 5.30 on Muscarinic receptor 2; 6.14 at Muscarinic receptor 1; < 5.00 in assay [2] (barium chloride 2×10^-5 M, contact time one minute, 37° C.); < 5.00 in assay [3]; 5.26 in assay [4] (acetylcholine 1×10^-6 M, contact time one minute, 37° C.). The “Agonistic action pD2” value in the assay with isolated ileum is listed as < 4.
As to `CN1[C@@H]2CC[C@H]1C[C@@H](OC(=O)C(CO)c1ccccc1)C2` (stereo partly shown) [Atropine, reference compound], the ED50 in assay [1] (read-out: Dose inhibiting diarrhoea in 50% of the animals) came to 0.04 mg/kg; in assay [1] (read-out: Dose inhibiting salivation in 50% of the animals) it was 0.06 mg/kg; in assay [1] (read-out: Dose inhibiting weeping in 50% of the animals), 0.05 mg/kg. In addition, the negative logarithm of the IC50 (pIC50) in assay [4] (Cavia porcellus) is 8.02.
Turning to `COC(=O)C1=CCCN(C)C1` [Arecoline, reference compound], the EC50 in the assay with isolated ileum was 209 nM.
Regarding `C[N+](C)(C)CCOC(N)=O` [Carbochol, carbachol, reference compound], in assay [1] (1 mg/kg s.c., control mice), the “decrease of the rectal temperature” value was “about 2.5 °C”; the “induction of diarrhoea, salivation and weeping” value was “induced diarrhoea, salivation and weeping in all the control mice”.
With `O=C1CC(O)CN1S(=O)(=O)c1ccc(N2CCCCCC2)cc1` (stereo not shown) [Example 6, 1-[[4-(hexahydro-1H-azepin-1-yl)-phenyl]-sulphonyl]-4-hydroxy-pyrrolidinon], the pIC50 at Muscarinic receptor 1 was 7.21; in assay [2] (setting [9]), 5.60; in assay [3] (Cavia porcellus), < 5.00; in assay [4] (setting [10]) it was 6.96. In addition, in the assay with isolated ileum, the EC50 is > 100000 nM. Also, the ED50 in assay [1] (setting [5]) was 12 mg/kg; in assay [1] (setting [6]), > 50 mg/kg; in assay [1] (setting [7]), > 50 mg/kg. The ED (1 degree C) in assay [1] (setting [8]) is 50 mg/kg.
As for `CCN(CC)c1ccc(S(=O)(=O)N2CC(O)CC2=S)cc1` (stereo not shown) [Example 3, 1-[[4-(diethylamino)-phenyl]-sulphonyl]-4-hydroxy-2-pyrrolidine thione], the pIC50 on Muscarinic receptor 2 is < 5.30; at Muscarinic receptor 1, 6.43; in assay [2] (setting [9]), < 5.00; in assay [3] (Cavia porcellus), < 5.00; in assay [4] (setting [10]), 5.52. In the assay with isolated ileum, the EC50 is > 100000 nM.
For `O=C1CC(O)CN1S(=O)(=O)c1ccc(N2CCCCC2)cc1` (stereo not shown) [Example 4, 4-hydroxy-1-[[4-(1-piperidinyl)-phenyl]-sulphonyl]-2-pyrrolidinone], the pIC50 on Muscarinic receptor 2 was 5.00; at Muscarinic receptor 1 it was 6.25; in assay [2] (setting [9]), 5.60; in assay [3] (Cavia porcellus) it was < 5.00; in assay [4] (setting [10]), 5.92. Further, the EC50 in the assay with isolated ileum was > 100000 nM.
`O=S(=O)(c1ccc(N2CCCCCC2)cc1)N1CC(O)CC1=S` (stereo not shown) [Example 7, 1-[[4-(hexahydro-1H-azepin-1-yl)-phenyl]-sulphonyl]-4-hydroxy pyrrolidine thione]: the pIC50 was 7.08 on Muscarinic receptor 1, 5.44 in assay [2] (setting [9]), < 5.00 in assay [3] (Cavia porcellus) and 6.29 in assay [4] (setting [10]). In addition, the EC50 with isolated ileum is > 100000 nM. Further, the ED50 was 5 mg/kg in assay [1] (setting [5]), 50 mg/kg in assay [1] (setting [6]) and > 50 mg/kg in assay [1] (setting [7]). In assay [1] (setting [8]), the ED (1 degree C) was determined as 20 mg/kg.
In the case of `COc1ccc(Cc2nccc3cc(OC)c(OC)cc23)cc1OC` [Papaverine, papaverine, reference compound], the pIC50 in assay [2] (Cavia porcellus) was 4.35.
